Results: US20250230193A1, “CYCLIC COMPOUND HAVING SELECTIVE KRAS INHIBITORY EFFECT ON HRAS AND NRAS” (CHUGAI SEIYAKU KABUSHIKI KAISHA, priority 2022, published 2025)
Where a SMILES comes first, the peptide text is derived from it. Bridges are numbered along the chain shown (N, C = ends). [ ]: non-standard residue; d: D form. The star is where a group is joined. hPhe(3-Cl-4-CF3) = N[C@@H](CCc1ccc(C(F)(F)F)c(Cl)c1)C(=O)O; NPrPhe(4-CF3) = CCCN[C@@H](Cc1ccc(C(F)(F)F)cc1)C(=O)O; NMeGly(cPent) = CN[C@H](C(=O)O)C1CCCC1; Gly(cBu) = N[C@H](C(=O)O)C1CCC1; NMeD = CN[C@@H](CC(=O)O)C(=O)O; NMeL = CN[C@@H](CC(C)C)C(=O)O; Morpholide = C1CN(*)CCO1; Ac5c = NC1(C(=O)O)CCCC1; Aze = O=C(O)[C@@H]1CCN1; Sar = CNCC(=O)O

Tests used:
[1] = biological target: GDP-bound HRAS wild-type protein (Homo sapiens, UniProt P01112); assay: Binding to HRAS by surface plasmon resonance (SPR), Single Cycle Kinetics
Sequence of GDP-bound HRAS wild-type protein (P01112 whole entry): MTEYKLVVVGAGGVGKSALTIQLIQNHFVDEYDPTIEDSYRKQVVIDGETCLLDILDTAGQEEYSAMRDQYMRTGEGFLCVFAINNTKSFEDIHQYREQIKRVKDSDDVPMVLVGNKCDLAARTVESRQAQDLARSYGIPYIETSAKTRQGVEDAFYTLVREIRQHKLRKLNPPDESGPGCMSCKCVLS

[2] = biological target: GDP-bound NRAS wild-type protein (Homo sapiens, UniProt P01111); assay: Binding to NRAS by surface plasmon resonance (SPR), Single Cycle Kinetics
Sequence of GDP-bound NRAS wild-type protein (P01111 whole entry): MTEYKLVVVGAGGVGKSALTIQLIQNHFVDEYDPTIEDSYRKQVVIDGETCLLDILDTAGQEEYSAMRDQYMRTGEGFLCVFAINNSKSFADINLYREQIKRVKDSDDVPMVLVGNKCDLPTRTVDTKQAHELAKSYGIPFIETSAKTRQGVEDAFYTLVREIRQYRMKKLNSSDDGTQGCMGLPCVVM

[3] = GDP-bound HRAS wild-type vs GDP-bound KRAS wild-type, SPR
[4] = GDP-bound NRAS wild-type vs GDP-bound KRAS wild-type, SPR

## CC[C@H](C)[C@@H]1NC(=O)[C@H](CC(C)C)N(C)C(=O)C[C@@H](C(=O)N(C)C)N(C)C(=O)[C@H](C2CCCC2)N(C)C(=O)C2(CCCC2)NC(=O)[C@@H]2CC(F)(F)CN2C(=O)[C@H](CCc2cc(F)c(C(F)(F)F)c(F)c2)NC(=O)CN(C)C(=O)[C@H](Cc2ccc(C(F)(F)F)cc2)N2CCCCC[C@@H](C2=O)N(C)C(=O)CN(C)C1=O [PP0465]
[1]; KD ratio HRAS/KRAS, SPR
  HRAS/KRAS (ratio of KD value with respect to GDP-bound HRAS wild-type protein to KD value with respect to KRAS): B (a compound having 3 or more and less than 10 is denoted as B)
[2]; KD ratio NRAS/KRAS, SPR
  NRAS/KRAS (ratio of KD value with respect to GDP-bound NRAS wild-type protein to KD value with respect to KRAS): B (a compound having 3 or more and less than 10 is denoted as B)

## C#CCN1CC(=O)N(C)[C@H]2C/C=C\CCN(C2=O)[C@@H](Cc2ccc(C)cc2)C(=O)N(C)CC(=O)N[C@@H](CCc2ccc(C(F)(F)F)c(Cl)c2)C(=O)N2C[C@H](OCC)C[C@H]2C(=O)NC2(CC(C)(C)C2)C(=O)N(C)[C@@H](C2CCCC2)C(=O)N(C)[C@H](C(=O)N(C)C)CC(=O)N(C)[C@@H](CCC)C(=O)N[C@@H](CC(C)C)C1=O [PP2526]
[1]; KD ratio HRAS/KRAS, class symbols
  HRAS/KRAS (ratio of KD value with respect to GDP-bound HRAS wild-type protein to KD value with respect to KRAS): B (a compound having 3 or more and less than 10 is denoted as B)
[2]; KD ratio NRAS/KRAS, class symbols
  NRAS/KRAS (ratio of KD value with respect to GDP-bound NRAS wild-type protein to KD value with respect to KRAS): A (a compound having 10 or more and less than 20 is denoted as A)

## CC[C@H](C)[C@@H]1NC(=O)[C@H](CC(C)C)NC(=O)C[C@@H](C(=O)N2CCOCC2)N(C)C(=O)[C@H](C2CCCC2)N(C)C(=O)C2(CCCC2)NC(=O)[C@@H]2CCCN2C(=O)[C@H](CCc2cc(F)c(C(F)(F)F)c(F)c2)NC(=O)CN(C)C(=O)[C@H](Cc2ccc(C(F)(F)F)cc2)N2CCCCC[C@@H](C2=O)N(C)C(=O)CN(C)C1=O [PP0516]
[1]; KD ratio HRAS/KRAS, SPR
  HRAS/KRAS (ratio of KD value with respect to GDP-bound HRAS wild-type protein to KD value with respect to KRAS): B (a compound having 3 or more and less than 10 is denoted as B)
[2]; KD ratio NRAS/KRAS, SPR
  NRAS/KRAS (ratio of KD value with respect to GDP-bound NRAS wild-type protein to KD value with respect to KRAS): B (a compound having 3 or more and less than 10 is denoted as B)

## CCCN1C(=O)CN(C)C(=O)[C@@H]2CCN2C(=O)[C@H](C2CCC2)NC(=O)[C@H](CC(C)C)N(C)C(=O)C[C@@H](C(=O)N2CCOCC2)N(C)C(=O)[C@H](C2CCCC2)N(C)C(=O)C2(CCCC2)NC(=O)[C@@H]2CCCN2C(=O)[C@H](CCc2ccc(C(F)(F)F)c(Cl)c2)NC(=O)CN(C)C(=O)[C@@H]1Cc1ccc(C(F)(F)F)cc1 [PP0305] ([NMeL][Gly(cBu)][Aze][Sar][NPrPhe(4-CF3)][Sar][hPhe(3-Cl-4-CF3)]P[Ac5c][NMeGly(cPent)][NMeD]-Morpholide; lactam N-11)
[1]; KD ratio HRAS/KRAS, SPR
  HRAS/KRAS (ratio of KD for GDP-bound HRAS wild-type to KD for KRAS): C (A compound having a KD ratio of 0.1 or more and less than 3 is denoted as C)
[2]; KD ratio NRAS/KRAS, SPR
  NRAS/KRAS (ratio of KD for GDP-bound NRAS wild-type to KD for KRAS): B (a compound having 3 or more and less than 10 is denoted as B)

## CCO[C@@H]1C[C@H]2C(=O)NC3(CC(C)(C)C3)C(=O)N(C)[C@@H](C3CCCC3)C(=O)N(C)[C@H](CC)CC(=O)N(C)[C@@H](CC3CC3)C(=O)N[C@@H]([C@@H](C)CC)C(=O)N(C)CC(=O)N(C)[C@H]3C/C=C\CCN(C3=O)[C@@H](Cc3ccc(C(F)(F)F)cc3)C(=O)N(C)CC(=O)N[C@@H](CCc3cc(F)c(C(F)(F)F)c(F)c3)C(=O)N2C1 [PP1629]
[1]; [3]
  HRAS/KRAS (ratio of KD value for HRAS to KD value for KRAS): B (a compound having 3 or more and less than 10 is denoted as B)
[2]; [4]
  NRAS/KRAS (ratio of KD value for NRAS to KD value for KRAS): B (a compound having 3 or more and less than 10 is denoted as B)

## CCCOC[C@H]1C(=O)N[C@@H]([C@@H](C)CC)C(=O)N(C)CC(=O)N(C)[C@H]2C/C=C\CCN(C2=O)[C@@H](Cc2ccc(C)cc2)C(=O)N(C)CC(=O)N[C@@H](CCc2ccc(C(F)(F)F)c(OC)c2)C(=O)N2C[C@H](OCC)C[C@H]2C(=O)NC2(CC(C)(C)C2)C(=O)N(C)[C@@H](C2CCCC2)C(=O)N(C)[C@H](C(=O)N(C)C)CC(=O)N1C [PP2449]
[1]; SPR, GDP-bound HRAS wild-type vs GDP-bound KRAS wild-type
  HRAS/KRAS (ratio of KD value with respect to HRAS to KD value with respect to KRAS): A (a compound having 10 or more and less than 20 is denoted as A)
[2]; SPR, GDP-bound NRAS wild-type vs GDP-bound KRAS wild-type
  NRAS/KRAS (ratio of KD value with respect to NRAS to KD value with respect to KRAS): A (a compound having 10 or more and less than 20 is denoted as A)

## CCO[C@@H]1C[C@H]2C(=O)NC3(CCC3)C(=O)N(C)[C@@H](C3CCCC3)C(=O)N(C)[C@H](C(=O)N(CC)CC)CC(=O)N(C)[C@@H](CC(C)C)C(=O)N[C@@H]([C@@H](C)CC)C(=O)N(C)CC(=O)N(C)[C@H]3C/C=C\CCN(C3=O)[C@@H](Cc3ccc(C)cc3)C(=O)N(C)CC(=O)N[C@@H](CCc3ccc(C(F)(F)F)c(OC)c3)C(=O)N2C1 [PP1887]
[1]; [3]
  HRAS/KRAS (ratio of KD value for HRAS to KD value for KRAS): B (a compound having 3 or more and less than 10 is denoted as B)
[2]; [4]
  NRAS/KRAS (ratio of KD value for NRAS to KD value for KRAS): A (a compound having 10 or more and less than 20 is denoted as A)
